Consider 1 compound from article PMC10792358 (Clinical Cancer Research, 2023).

The subject of data set [1] is HR+/HER2− breast cancer with PIK3CA mutations. As to conditions: patients with PIK3CA mutations, few treated with CDK4/6i; cited from earlier work.
Data set [2] can be described thus: Plasma pharmacokinetics. The note with it: data not shown.

SMILES strings stand for the structures.

Regarding `C[C@]12CC[C@@H]3c4ccc(O)cc4C[C@@H](CCCCCCCCC[S+]([O-])CCCC(F)(F)C(F)(F)F)[C@H]3[C@@H]1CC[C@@H]2O` (stereo partly drawn) [fulvestrant], the ORR in data set [1] was 12.8%. Moreover, the “effect of molibresib on fulvestrant pharmacokinetics” value in data set [2] (fulvestrant predose concentrations) was “lack of effect”. Besides, the predose concentrations result in data set [2] (fulvestrant with molibresib, compared with ref 18) is “within the range anticipated”.
